Read-outs that look alike come from different tables or passages of the source.
Columns and labels:
[1] = test system: Puccinia triticina; test: Wheat Brown Rust (PUCCRT) fungicidal activity; format: in vivo; conditions: Low Volume (121.5 g/H)
Description: Technical grades of materials were dissolved in acetone, which were then mixed with nine volumes of H2O containing 110 ppm Triton X-100. The fungicide solutions were applied onto wheat seedlings using an automated booth sprayer to run-off. All sprayed plants were allowed to air dry prior to further handling. All fungicides were evaluated using the aforementioned method for their activity vs. all target diseases, unless stated otherwise. Wheat leaf blotch and brown rust activity were also evaluated using track spray applications, in which case the fungicides were formulated as EC formulations, containing 0.1% Trycol 5941 in the spray solutions. Wheat plants (variety Yuma) were grown from seed in a greenhouse in 50% mineral soil/50% soil-less Metro mix until the first leaf was fully emerged, with 7-10 seedlings per pot. These plants were inoculated with an aqueous spore suspension of Puccinia triticina either prior to or after fungicide treatments. After inoculation the plants were kept in a dark dew room at 22° C. with 100% relative humidity overnight to permit spores to germinate and infect the leaf. The plants were then transferred to a greenhouse set at 24° C. for disease to develop. Fungicide formulation, application and disease assessment followed the procedures as described in the Example A.

[2] = test system: Zymoseptoria tritici; test: Leaf Blotch of Wheat (SEPTTR) fungicidal activity; format: in vivo; conditions: Low Volume (121.5 g/H)
Description: Technical grades of materials were dissolved in acetone, which were then mixed with nine volumes of H2O containing 110 ppm Triton X-100. The fungicide solutions were applied onto wheat seedlings using an automated booth sprayer to run-off. All sprayed plants were allowed to air dry prior to further handling. All fungicides were evaluated using the aforementioned method for their activity vs. all target diseases, unless stated otherwise. Wheat leaf blotch and brown rust activity were also evaluated using track spray applications, in which case the fungicides were formulated as EC formulations, containing 0.1% Trycol 5941 in the spray solutions. Wheat plants (variety Yuma) were grown from seed in a greenhouse in 50% mineral soil/50% soil-less Metro mix until the first leaf was fully emerged, with 7-10 seedlings per pot. These plants were inoculated with an aqueous spore suspension of Zymoseptoria tritici either prior to or after fungicide treatments. After inoculation the plants were kept in 100% relative humidity (one day in a dark dew chamber followed by two to three days in a lighted dew chamber at 20° C.) to permit spores to germinate and infect the leaf. The plants were then transferred to a greenhouse set at 20° C. for disease to develop. When disease symptoms were fully expressed on the 1st leaves of untreated plants, infection levels were assessed on a scale of 0 to 100 percent disease severity. Percent disease control was calculated using the ratio of disease severity on treated plants relative to untreated plants.

[3] = 24 h, 1 Day Protectant, read-out: PUCCRT 1DP disease control
[4] = 72 h, 3 Day Curative, read-out: PUCCRT 3DC disease control
[5] = 24 h, 1 Day Protectant, read-out: SEPTTR 1DP disease control
[6] = 72 h, 3 Day Curative, read-out: SEPTTR 3DC disease control

Row | Structure (SMILES) | pest or weed control at 121.5 g/ha [1, 3] | pest or weed control at 121.5 g/ha [1, 4] | pest or weed control at 121.5 g/ha [2, 5] | pest or weed control at 121.5 g/ha [2, 6]
1 | COc1ccnc(C(=O)N[C@H]2CCCC[C@H](Cc3ccccc3)[C@@H](OC(=O)C(C)C)[C@H](C)OC2=O)c1OCOC(C)=O [Compound 60] | > 80% | > 80% | > 80% | > 80%
2 | COc1ccc(C[C@H]2CCOC[C@H](NC(=O)c3nccc(OC)c3OC(=O)C(C)C)C(=O)O[C@@H](C)[C@@H]2Oc2ccccc2)cc1 [Compound 68] | > 80% |  | < 80% | < 80%
3 | COc1ccnc(C(=O)N[C@H]2CCCC[C@H](OC)[C@@H](OC)[C@H](C)OC2=O)c1OC(C)=O [Compound 27] | > 80% | > 80% | < 80% | 
4 | COc1ccnc(C(=O)N[C@H]2COCC[C@H](Cc3ccccc3)[C@@H](OCC(C)C)[C@H](C)OC2=O)c1OCOC(C)=O [Compound 20] | > 80% | > 80% | < 80% | > 80%
5 | COc1ccnc(C(=O)N[C@H]2COCC[C@H](OCc3ccccc3)[C@@H](OCc3ccccc3)[C@H](C)OC2=O)c1OCOC(C)=O [Compound 1] | > 80% |  | > 80% | < 80%
6 | COc1ccnc(C(=O)N[C@H]2CCCC[C@H](Oc3ccccc3)[C@@H](Oc3ccccc3)[C@H](C)OC2=O)c1OC(C)=O [Compound 25] | > 80% | < 80% | > 80% | < 80%
7 | COc1ccnc(C(=O)N[C@H]2CCCC[C@H](OC)[C@@H](Oc3ccccc3)[C@H](C)OC2=O)c1OCOC(C)=O [Compound 11] | > 80% | > 80% | > 80% | > 80%
8 | COc1ccnc(C(=O)N[C@H]2CCCC[C@H](CC3CCCC3)[C@@H](OC(=O)C(C)C)[C@H](C)OC2=O)c1OCOC(C)=O [Compound 54] | > 80% | < 80% | > 80% | 
9 | CC(=O)OCOc1cccnc1C(=O)N[C@H]1CCCC[C@H](CC2CCCC2)[C@@H](Oc2ccccc2)[C@H](C)OC1=O [Compound 49] | > 80% | < 80% | < 80% | 
10 | CC[C@H]1CCOC[C@H](NC(=O)c2nccc(OC)c2OCOC(C)=O)C(=O)O[C@@H](C)[C@@H]1OC(=O)C1CC1 [Compound 79] | > 80% | > 80% | > 80% | 
11 | COc1ccnc(C(=O)N[C@H]2CCCC[C@H](OC)[C@@H](OCC(C)C)[C@H](C)OC2=O)c1OC(C)=O [Compound 28] | > 80% | > 80% | < 80% | > 80%
12 | COc1ccnc(C(=O)N[C@H]2CCCC[C@H](OCC(C)C)[C@@H](OCC(C)C)[C@H](C)OC2=O)c1OCOC(C)=O [Compound 14] | > 80% | < 80% | > 80% | < 80%
13 | COc1ccnc(C(=O)N[C@H]2CCCC[C@H](CC3CCCC3)[C@@H](OC(=O)C(C)C)[C@H](C)OC2=O)c1OC(C)=O [Compound 56, (2S,3R,4R,9S)-9-(3-acetoxy-4-methoxypicolinamido)-4-(cyclopentylmethyl)-2-methyl-10-oxooxecan-3-yl isobutyrate] | > 80% | < 80% | > 80% | < 80%
14 | COc1ccnc(C(=O)N[C@H]2CCOC[C@H](OC)[C@@H](Oc3ccccc3)[C@H](C)OC2=O)c1OCOC(C)=O [Compound 40] | > 80% | > 80% | > 80% | > 80%

— patent publication US20180002320A1, “USE OF MACROCYCLIC PICOLINAMIDES AS FUNGICIDES” (DOW AGROSCIENCES LLC, priority 2014, published 2018)
